The text below walks through data of paper PMC12670405, “Second-Generation AURKA-Targeting PROTACs: Structural Optimization toward in Vivo Degradation in Neuroblastoma” (Journal of Medicinal Chemistry, 2025).

Molecules are shown by their SMILES.

One test deals with SK-N-BE(2)-C. Nature of the test: IncuCyte live-cell imaging, antiproliferative effect. Format: cell-based, human. To be noted: Homo sapiens, SK-N-BE(2)-C, 72 h, read-out: Cell GI50 72h. The source says: Human neuroblastoma cell lines NGP, IMR-32, SJNB-8, SK-N-BE(2)-C, SJNB-1, SK-N-SH and SK-N-AS, as well as benign immortalized cell lines RPE and HEK293T were either bought commercially or obtained through research laboratories. […] Screening for mycoplasma contamination occurred routinely on the cells. Human neuroblastoma cell lines SH-SY5Y_shABCB1 & SH-SY5Y_shNTC were generated by transduction with pLKO.1-ABCB1_TRCN0000059683 shRNA (Sigma MISSION SHCLND) or pLKO.1-puro NT shRNA (Sigma MISSION SHC002) vectors respectively (Supplementary Table S6), packaged using Lenti-X293T (Clontech). Transduced cells were selected with 2 μg/mL puromycin. These cells were cultured in DMEM 4.5 g/L D-Glucose, L-Glutamine and 110 mg/L Sodium Pyruvate (Gibco, #11995065) supplemented with 10% fetal bovine serum, 1× Antibiotic-Antimycotic solution (Sigma-Aldrich, #A5955) and 1× MEM nonessential amino acids (Sigma-Aldrich, #M7145). Incubation of all cells occurred at 37 °C and 5% CO2.
Neuroblastoma cells were seeded in 384-well plates at different densities ranging from 1200 to 5000 cells/well and allowed to adhere overnight. RPE and HEK293T were seeded at 200 and 600 cells/well, respectively. Compound treatment was performed using the D300e Digital Dispenser (Tecan) in duplicate or triplicate and cell confluency was monitored over time using the IncuCyte Live-cell imaging system (Sartorius). […] Mean normalized confluences were calculated from 3 individual experiments.
(§1) All dose–response curves were computed on GraphPad Prism using the Variable Slope (four parameters) equation. Absolute half-maximal degradation (DC50), growth inhibitory (GI50) and enzymatic inhibitory (IC50) concentrations, as well as inhibition constants (Ki) were derived from dose–response curves via interpolation. Statistical tests were performed on GraphPad Prism and detailed in the figure legends. Unless otherwise stated, “n” in the figure legends indicates the number of independent experiments conducted at different times.

The target of test [1] is T1, NanoLuc-AURKA (Homo sapiens, UniProt O14965).
T1 construct: Plasmids encoding full-length wild-type AURKA fused to Nano-Luc; host or cells: HEK293T
T1 sequence (O14965 1-403): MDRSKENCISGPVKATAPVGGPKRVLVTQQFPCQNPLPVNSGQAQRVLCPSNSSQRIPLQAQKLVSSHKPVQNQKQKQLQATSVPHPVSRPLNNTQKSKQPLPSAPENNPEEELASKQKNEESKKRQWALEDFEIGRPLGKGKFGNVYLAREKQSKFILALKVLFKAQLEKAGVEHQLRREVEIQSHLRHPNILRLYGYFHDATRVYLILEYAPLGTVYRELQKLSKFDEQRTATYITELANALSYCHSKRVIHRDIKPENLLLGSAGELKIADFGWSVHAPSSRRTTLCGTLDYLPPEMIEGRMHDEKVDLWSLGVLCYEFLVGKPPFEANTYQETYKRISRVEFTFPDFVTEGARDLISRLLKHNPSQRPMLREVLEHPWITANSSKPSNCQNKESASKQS
Briefly: NanoBRET target engagement, live (intact) cells. Format: cell-based. Conditions: intact HEK293T. Here is the method:
(§2) The NanoBRET Target Engagement Assay (Promega) was performed according to the recommended instructions from the manufacturer. Plasmids encoding full-length wild-type AURKA fused to Nano-Luc via AURKA’s C-terminus (Promega, #NV1041) were transfected into HEK293T cells using FuGENE HD (Promega, #E2312). […] The plate was mixed at 900 rpm for 15 s, using an orbital shaker. For the permeabilized-mode, digitonin (Sigma-Aldrich, #D141) was additionally added at a final concentration of 50 μg/mL. Test compounds were subsequently administered in duplicate using the D300e digital dispenser (Tecan), followed by incubation for 2 h (37 °C, 5% CO2). To measure BRET, nanoglo substrate and extracellular nanoluc inhibitor (only in live-mode) (Promega #N2540) were added, and luminescence was measured using the GloMax Discover Microplate Reader (Promega) with a luminescence filter pair of 450 nm (BP filter, donor) and 600 nm (LP filter, acceptor). The NanoBRET ratio was calculated using the following formula: BRET ratio = 1000*[(acceptor signal/donor signal)with tracer – (acceptor signal/donor signal)no tracer]. Relative BRET ratios (%) were generated by normalizing to the negative DMSO control. The experiment was performed once with 2 replicate samples.
as §1

The test system of a further test is SK-N-AS. Briefly: IncuCyte live-cell imaging, antiproliferative effect. Format: cell-based. To be noted: Homo sapiens, 72 h, read-out: Cell GI50 72h. In short, it runs like this:
(§3)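 Cells seeded in 384-well plates (neuroblastoma 1200–5000, HEK293T 600 cells/well), adhered overnight, then compound-treated in duplicate or triplicate; confluency tracked by IncuCyte live-cell imaging. Normalized confluence averaged from 3 experiments; absolute GI50 interpolated from four-parameter variable-slope curves.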

The next test has as its system HEK293T. Described as above. To be noted: Homo sapiens, HEK-293T, 72 h, read-out: Cell GI50 72h. Format: cell-based. In short, it runs like this: as §3
A further test has as its system RPE. The description is as above. Format: cell-based. To be noted: 72 h, read-out: Cell GI50 72h.
In a further test the test system is NGP. The test is described as above. Conditions: Homo sapiens, 72 h, read-out: Cell GI50 72h, NGP (Figure 4B). Format: cell-based. A digest of the protocol: as §3
The test system of a further test is IMR-32. The description is as above. Format: cell-based. To be noted: Homo sapiens, IMR-32, 72 h, read-out: Cell GI50 72h, IMR-32. A digest of the protocol: as §3
A further test deals with SK-N-SH. Described as above. Format: cell-based. Conditions: Homo sapiens, 72 h, read-out: Cell GI50 72h. A digest of the protocol:
as §3

The subject of another test is SJNB-8. Described as above. Conditions: Homo sapiens, 72 h, read-out: Cell GI50 72h, SJNB-8. Format: cell-based. A digest of the protocol:
as §3

For test [2], the target named is T1, NanoLuc-AURKA. Nature of the test: NanoBRET target engagement, permeabilized mode. Format: binding. To be noted: permeabilized HEK293T. Here is the method:
as §2, §1

Regarding `O=C(O)[C@]1(Cc2cccc(Nc3nccs3)n2)CC[C@@H](Oc2cccc(Cl)c2F)CC1` [MK-5108, reference compound], the concentration for 50% growth inhibition (GI50) in the test with SK-N-BE(2)-C came out at 302 nM; in the test on SK-N-AS, 911 nM; in the test with HEK293T it was 1310 nM; with RPE, 953 nM; with NGP, 263 nM; in the test on IMR-32, 119 nM. The figures for the GI50 in the test with SK-N-SH and in the test on SJNB-8 were 249 nM and 348 nM, respectively. The “NanoLuc-AURKA engagement in intact cells (in words)” value at NanoLuc-AURKA [1] was “stronger AURKA engagement than TAS-119”. The “potency relative to SK4454 and SK5527 in NanoBRET” value at NanoLuc-AURKA [2] is on record as “at least 10 times”.

Consider `Cc1cc(Nc2nc(CC3(C(=O)O)CCN(C(=O)c4cccc(Cl)c4Cl)CC3)ccc2F)n[nH]1` [TAS-119, reference compound], for which the GI50 in the test on SK-N-BE(2)-C was 57 nM; in the test with SK-N-AS, 134 nM; in the test on HEK293T, 184 nM; in the test on RPE, 250 nM; with NGP, 20 nM; in the test with IMR-32, 11 nM. For the same compound, the GI50 with SK-N-SH amounted to 30 nM; in the test on SJNB-8, 44 nM. Also, the “potency relative to SK4454 and SK5527 in NanoBRET” value at NanoLuc-AURKA [2] is listed as “at least 10 times”.
